Data reported in patent US7056940B2, “Insecticidal 3-(2,6-disubstituted phenyl)-5-[5-arylthien-2-yl]-1,2,4-triazoles” (Dow AgroSciences LLC, priority 2001, dated 2006).

Assays:
[1] = system: Tobacco Budworm (Heliothis virescens); experiment: Insecticidal test for tobacco budworm, treated cotton cotyledon leaf disc; type: in vivo; set-up: key: A: 90–100; B: 80–89; C: 70–79; D: 60–69; E: 50–59; F: less than 50; G: Inactive; settings: cotton cotyledon leaf-dip, 2nd instar larvae, 5 days
[2] = system: Beet Armyworm (Spodoptera exigua); experiment: Insecticidal test for beet armyworm, treated lepidopteran diet; type: in vivo; set-up: key: A: 90–100; B: 80–89; C: 70–79; D: 60–69; E: 50–59; F: less than 50; G: Inactive; settings: on diet surface, second-instar larvae, 5 days
How it was run: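 Test compound formulated at 400 ppm in 2:1 acetone:tap water; 250 μL applied onto surface of modified Shorey lepidopteran diet, five cups per compound (one cup = one replicate). After solvent air-dried, one second-instar larva placed on treated diet per cup.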

[3] = system: Cabbage Looper (Trichoplusia ni); experiment: Insecticidal test for cabbage looper, treated cabbage leaf disc; type: in vivo; settings: cabbage leaf-dip, 2nd instar larvae, 5 days
[4] = system: Cotton Aphid (Aphis gossypii); experiment: Insecticidal test for cotton aphid, spray on infested squash cotyledons; type: in vivo; settings: 50 ppm spray, 3 days
How it was run: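 Squash cotyledons were infested with all aphid life stages 16–20 h beforehand, then sprayed on both sides to runoff with 50 ppm compound (acetone:ethanol, 0.05% Tween 20). After 3 days at 26 °C and 40% RH, aphids were counted under a microscope, and percent control is population reduction versus untreated.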

[5] = system: Two-spotted Spider Mite (Tetranychus urticae); experiment: Insecticidal test for two-spotted spider mite, ovicide method; type: in vivo; set-up: key: A: 90–100; B: 80–89; C: 70–79; D: 60–69; E: 50–59; F: less than 50; G: Inactive; settings: cotton leaf discs, 6 days
How it was run: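 Cotton leaf discs (eight, 2.2 cm each) received ten adult female two-spotted spider mites, which laid eggs for 24 hours before being taken off. The discs were then set on an agar substrate and kept at 24° C. and 90% RH for 6 days to assess ovicidal control.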

[6] = system: Sweetpotato Whitefly (Bemisia tabacia); experiment: Insecticidal test for sweetpotato whitefly, spray on cotton plants; type: in vivo; set-up: key: A: 90–100; B: 80–89; C: 70–79; D: 60–69; E: 50–59; F: less than 50; G: Inactive; settings: 200 ppm spray, 13 days, large nymphs
How it was run: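 Five-week cotton plants trimmed to two leaves carried 2 days of whitefly oviposition, then adults were removed. Leaves were sprayed top and bottom with 200 ppm compound in water with 0.05% Tween 20 (acetone:ethanol co-solvent), four replicates. After 13 days at 28° C/60% RH, 3rd–4th instar nymphs were counted; percent control versus solvent-only sprayed plants.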

melting point | Compound | TBW: activity at 400 ppm against tobacco budworm (% control rating) [1] | BAW: activity at 400 ppm against beet armyworm (% control rating) [2] | CL: activity at 400 ppm against cabbage looper (% control rating) [3] | CA: activity at 50 ppm against cotton aphid (% control rating) [4] | SM: activity against two-spotted spider mite (% control rating) [5] | WF: activity at 200 ppm against whitefly (% control rating) [6]
124 to 125 °C | Cc1c(-c2nc(-c3c(F)cccc3Cl)nn2C)csc1-c1ccc(OC(F)(F)F)cc1 [Example 1, 3-(2-Chloro-6-fluorophenyl)-5-[4-methyl-5-(4-trifluoromethoxyphenyl)thien-3-yl]-1-methyl-1H-1,2,4-triazole] |  |  |  |  |  | 
135 to 136 °C | Cn1nc(-c2c(F)cccc2Cl)nc1-c1cc(-c2ccc(OC(F)(F)F)cc2)sc1Br [Example 3, 3-(2-Chloro-6-fluorophenyl)-5-[2-bromo-5-(4-trifluoromethoxyphenyl)thien-3-yl]-1-methyl-1H-1,2,4-triazole] |  |  |  |  |  | 
153 to 155 °C | Cc1sc(-c2ccc(OC(F)(F)F)cc2)cc1-c1nc(-c2c(F)cccc2Cl)nn1C [Example 4, 3-(2-Chloro-6-fluorophenyl)-5-[2-methyl-5-(4-trifluoromethoxyphenyl)thien-3-yl]-1-methyl-1H-1,2,4-triazole] |  |  |  |  |  | 

The remaining lines, values behind:

Compound | melting point | TBW: activity at 400 ppm against tobacco budworm (% control rating) [1] | BAW: activity at 400 ppm against beet armyworm (% control rating) [2] | CL: activity at 400 ppm against cabbage looper (% control rating) [3] | CA: activity at 50 ppm against cotton aphid (% control rating) [4] | SM: activity against two-spotted spider mite (% control rating) [5] | WF: activity at 200 ppm against whitefly (% control rating) [6]
Cn1nc(-c2c(F)cccc2Cl)nc1-c1cc(-c2cccc(C(F)(F)F)c2)sc1Cl [Example 2, 3-(2-Chloro-6-fluorophenyl)-5-[2-chloro-5-(3-trifluoromethylphenyl)thien-3-yl]-1-methyl-1H-1,2,4-triazole] | 53 to 54 °C |  |  |  |  |  | 
Cc1c(-c2nc(-c3c(F)cccc3Cl)nn2C)csc1-c1ccc(OC(F)(F)C(F)C(F)(F)F)cc1 (centres unmarked) [Example 7, 3-(2-Chloro-6-fluorophenyl)-5-{5-[4-(1,1,2,3,3,3-hexafluoropropoxy)phenyl]-4-methylthien-3-yl}-1-methyl-1H-1,2,4-triazole] | 114 to 116 °C |  |  |  |  |  | 
Cc1c(-c2nc(-c3c(F)cccc3Cl)nn2C)csc1-c1ccc(OC(F)(F)C(F)C(F)(F)F)cc1 (centres unmarked) [drawing 216] |  | A (90–100) | A (90–100) | A (90–100) | D (60–69) | B (80–89) | A (90–100)
Cc1c(-c2nc(-c3c(F)cccc3Cl)nn2C)csc1-c1ccc(F)cc1F [drawing 224] |  | D (60–69) | G | A (90–100) | A (90–100) | G | G
Cc1c(-c2nc(-c3c(F)cccc3Cl)nn2C)csc1-c1ccc(F)cc1F [drawing 233] |  | G | G | A (90–100) | B (80–89) | B (80–89) | F (less than 50)
